Reference: patent US20250101052A1, “COMPOUND FOR EGFR KINASE INHIBITOR, COMPOSITION, AND USE THEREOF” (INNOVATION INSTITUTE FOR ARTIFICIAL INTELLIGENCE IN …, priority 2021, published 2025)

Key:
Aurora B = Aurora B (Homo sapiens (Human), UniProt Q96GD4); assay: Activity of other kinases: Aurora B (HTRF); format: biochemical
Experimental: Embodiment 5 Activity of Other Kinases
(1) Preparation of 1×kinase reaction buffer:
1 time the volume of 5×kinase reaction buffer and 4 times the volume of water; 5 mM MgCl2; 1 mM DTT.
(2) Screening of Compounds:
a) The compound was diluted with DMSO in a dilution plate.
b) The compound was diluted 40 times into the 1× kinase reaction buffer and oscillated on an oscillator for 20 minutes.
c) 2× was prepared using a 1× enzyme reaction buffer.
d) 2 μL of kinase was added to each well of the reaction plate.
e) 1 μL of the compound diluted in the buffer was added to each well, and the plate was sealed with a sealing film, centrifuged at 1000 rpm for 60 seconds and incubated at 25° C. for 10 minutes.
f) A mixture of 2.5×S2 &TK-substrate-biotin and ATP was prepared using the 1× enzyme reaction buffer, and 2 μL of the S2 &TK-substrate-biotin/ATP mixture was added to the reaction plate.
G) The plate was sealed with a sealing film, centrifuged at 1000 rpm for 60 seconds and incubated at 25° C. for 50&40&30&20 minutes.
h) 4× Sa-XL 665 was prepared using an HTRF detection buffer.
i) 5 μL of Sa-XL 665 and 5 μL of STK/TK-antibody-Cryptate were added to each well, centrifugation was conducted at 1000 rpm for 60 seconds, and incubation was conducted at 25° C. for 1 hour.
j) The fluorescence signals at 615 nm (Cryptate) and 665 nm (XL665) were read using the BGM microplate reader.

[1] = test system: BaF3-EGFR^L858R/C797S cells; assay: BaF3 cell proliferation inhibition experiment (CCK-8); format: cell-based; settings: Ba/F3 EGFR-L858R, 72 h, read-out: BaF3-EGFR^L858R/C797S (IC50 nM)

Sequence of Aurora B (Q96GD4 whole entry): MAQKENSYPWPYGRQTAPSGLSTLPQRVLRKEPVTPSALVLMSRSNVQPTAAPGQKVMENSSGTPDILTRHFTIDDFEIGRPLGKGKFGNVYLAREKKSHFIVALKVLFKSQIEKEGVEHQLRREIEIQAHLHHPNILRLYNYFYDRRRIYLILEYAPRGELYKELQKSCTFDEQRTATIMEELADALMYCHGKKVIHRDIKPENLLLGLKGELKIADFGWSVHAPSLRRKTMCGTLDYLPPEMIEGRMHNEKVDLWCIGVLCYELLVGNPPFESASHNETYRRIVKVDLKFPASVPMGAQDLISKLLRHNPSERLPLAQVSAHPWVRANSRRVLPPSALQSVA

SMILES	IC50 (Aurora B) [nM]	IC50 [1] [nM]
CCc1cc(Nc2ncc(Cl)c(Nc3ccc(C)c(C)c3P(C)(C)=O)n2)c(OC)cc1N1CCC(N2CCN(C)CC2)CC1 [Comparative Compound A, reference compound]	2010	–
CCc1cc(Nc2ncc(Cl)c(Nc3ccc(C)c(C)c3P(C)(C)=O)n2)c(OC)cc1N1CC2(CCN(C)CC2)C1 [Compound 24, (6-((5-Chloro-2-((5-ethyl-2-methoxy-4-(7-methyl-2,7-diazaspiro[3.5]non-2-yl)phenyl)amino)pyrimidin-4-yl)amino)-2,3-dimethylphenyl)dimethylphosphine oxide]	410	158
CCc1cc(Nc2ncc(Cl)c(Nc3ccc(C)c(C)c3P(C)(C)=O)n2)c(OC)cc1N1CCC(N2C[C@H]3CC[C@@H](C2)N3C)CC1 [Compound 51, (6-((5-chloro-2-((5-ethyl-2-methoxy-4-(4-((1R,5S)-8-methyl-3,8-diazabicyclo[3.2.1]octan-3-yl)piperidin-1-yl)phenyl)amino)pyrimidin-4-yl)amino)-2,3-dimethylphenyl)dimethylphosphine oxide]	–	116
